The record followed here is PubChem BioAssay (NCI).

Several values for one entry are separate records, joined by “and”; a condition that tells them apart may be missing. Equal values may be shown once.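 Where inhibition never reached the appropriate level, the endpoint shown equals the highest concentration tested. Otherwise, values were interpolated linearly from a five-concentration, 48-hour dose response in 96-well plates. Here, GI50 denotes the concentration required for 50% inhibition of growth. TGI: concentration producing complete growth inhibition.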

Test systems include A498 renal; CCRF-CEM leukemia; EKVX NSCLC; HT29 colon; IGROV1 ovarian; M14 melanoma; MDA-MB-231 breast; MOLT-4 leukemia; RPMI-8226 leukemia; SK-OV-3 ovarian.
What all share (assay): growth of human tumour cells (NCI), 48 h

As for `Cc1noc(-c2ccc(C(=O)O)[nH]2)c1Br`, the TGI in the assay on A498 renal, with CCRF-CEM leukemia, with EKVX NSCLC, in the assay with HT29 colon, in the assay on IGROV1 ovarian and in the assay with M14 melanoma was more than 100 µM in each case. The TGI with MDA-MB-231 breast, in the assay with MOLT-4 leukemia, in the assay with RPMI-8226 leukemia and in the assay on SK-OV-3 ovarian was more than 100 µM each time.
`CN(C)Cc1cc(/C=C/C(=O)c2ccc(Br)cc2)cc(CN(C)C)c1O`: the TGI with A498 renal was 27.7 µM; in the assay on CCRF-CEM leukemia it was 25.4 µM; with EKVX NSCLC, 55.2 µM; in the assay on HT29 colon, 62.4 µM; in the assay on IGROV1 ovarian it was 23.4 µM; in the assay with M14 melanoma, more than 100 µM. Moreover, the TGI in the assay on MDA-MB-231 breast came to 40 µM; in the assay with MOLT-4 leukemia, 42.9 µM; in the assay with RPMI-8226 leukemia, 26.5 µM; in the assay with SK-OV-3 ovarian, 55.1 µM.
`COc1ccc(N=C(C)C(C)=Nc2ccc(OC)cc2)cc1`: the TGI in the assay with A498 renal, with CCRF-CEM leukemia, in the assay with EKVX NSCLC, with HT29 colon, in the assay on IGROV1 ovarian and with M14 melanoma was more than 100 µM each time. The TGI in the assay with MDA-MB-231 breast, in the assay with MOLT-4 leukemia, in the assay with RPMI-8226 leukemia and in the assay with SK-OV-3 ovarian was more than 100 µM each time.
On to `COc1ccc(C2C3=C(COC3=O)Oc3cc4c(cc32)OCO4)cc1OC` (configuration not stated), for which the TGI in the assay with A498 renal is 8.18 µM; with CCRF-CEM leukemia it was more than 32.4 µM; in the assay with EKVX NSCLC it was more than 38 µM; in the assay on HT29 colon it was 13 µM; in the assay with IGROV1 ovarian, more than 100 µM; in the assay with M14 melanoma it was more than 100 µM. The TGI with MDA-MB-231 breast was more than 100 µM; with MOLT-4 leukemia, more than 29.9 µM; in the assay on RPMI-8226 leukemia, more than 23.5 µM; with SK-OV-3 ovarian it was 18.1 µM.
With `CCN(CC)CC[n+]1ccc2c(C)c3[nH]c4ccccc4c3c(C)c2c1`, the TGI in the assay with A498 renal was 25.2 µM and 28.8 µM and 17.9 µM; in the assay with CCRF-CEM leukemia it was 4.33 µM and 2.1 µM and 2.27 µM; in the assay with EKVX NSCLC it was 8.97 µM and 16.4 µM and 4.14 µM; in the assay with HT29 colon, 3.82 µM and 4.45 µM and 4.46 µM; in the assay on IGROV1 ovarian, 3.45 µM and 11.2 µM and 5.33 µM; in the assay on M14 melanoma, 3.28 µM. The TGI was 2.93 µM in the assay with MDA-MB-231 breast; 1.59 µM and 6.02 µM and 3.27 µM in the assay on MOLT-4 leukemia; 4.87 µM and 0.536 µM and 2.95 µM in the assay on RPMI-8226 leukemia; 6.13 µM and 11.7 µM and 11.4 µM with SK-OV-3 ovarian. The GI50 was 0.245 µM and 0.0957 µM with CCRF-CEM leukemia; 1.48 µM with EKVX NSCLC; 0.416 µM in the assay on HT29 colon; 0.365 µM and 1.21 µM and 0.786 µM in the assay on IGROV1 ovarian; 0.274 µM in the assay with MOLT-4 leukemia; less than 0.0471 µM in the assay with RPMI-8226 leukemia. Besides, the GI50 in the assay with SK-OV-3 ovarian was 1.35 µM and 2.62 µM and 3.92 µM.
On to `C[C@H](CCc1nc(C#N)c(N)o1)[C@H]1CC[C@H]2[C@@H]3CCC4C[C@@H](O)CC[C@]4(C)[C@H]3C[C@@H](O)[C@]12C` (some centres not stated), for which the TGI in the assay on A498 renal was 36.6 µM; with CCRF-CEM leukemia it was 0.445 µM; in the assay on EKVX NSCLC it was 27.8 µM; with HT29 colon it was 27.7 µM; with IGROV1 ovarian, 25.6 µM; with M14 melanoma it was 34.2 µM. In addition, the TGI amounted to 32.7 µM with MDA-MB-231 breast, 20.2 µM in the assay on MOLT-4 leukemia, 6.05 µM in the assay on RPMI-8226 leukemia and 28.5 µM with SK-OV-3 ovarian.
As to `CSCCC(NC(=O)C(Cc1c[nH]c2ccccc12)NC(=O)CCNC(=O)OC(C)(C)C)C(=O)NC(CC(=O)O)C(=O)NC(Cc1ccccc1)C(N)=O` (configuration not stated), the TGI in the assay with A498 renal, in the assay on CCRF-CEM leukemia, in the assay with EKVX NSCLC, with HT29 colon, with IGROV1 ovarian and in the assay on M14 melanoma was more than 50 µM in each case. For the same compound, the TGI in the assay on MDA-MB-231 breast, in the assay on MOLT-4 leukemia, with RPMI-8226 leukemia and in the assay with SK-OV-3 ovarian was more than 50 µM each time.
On to `CC1=NN(c2ccccc2)C(=O)/C1=C\c1c(C)[nH]n(-c2ccccc2)c1=O`, for which the TGI with A498 renal, with CCRF-CEM leukemia, in the assay with EKVX NSCLC, with HT29 colon, in the assay with IGROV1 ovarian and in the assay on M14 melanoma was more than 100 µM in each case. Also, the TGI is more than 100 µM in the assay with MDA-MB-231 breast, more than 100 µM in the assay with MOLT-4 leukemia, 83.3 µM in the assay on RPMI-8226 leukemia and more than 100 µM in the assay on SK-OV-3 ovarian.
Regarding `O=C1CC(c2cccc([N+](=O)[O-])c2)C2(C(=O)NC(=S)NC2=O)C(c2cccc([N+](=O)[O-])c2)C1` (configuration not stated), the TGI in the assay on A498 renal was more than 100 µM; with CCRF-CEM leukemia, 97.1 µM; with EKVX NSCLC it was 74.1 µM; in the assay with HT29 colon, more than 100 µM; with IGROV1 ovarian, more than 100 µM; in the assay with M14 melanoma, 58.5 µM. Besides, the TGI was 62.4 µM in the assay with MDA-MB-231 breast, more than 100 µM in the assay with MOLT-4 leukemia, more than 100 µM in the assay on RPMI-8226 leukemia and more than 100 µM in the assay on SK-OV-3 ovarian.
For `COC(=O)[C@@H]1C=CCN1S(=O)(=O)c1ccc(C)cc1`, the TGI is more than 100 µM in the assay on A498 renal; 72.1 µM in the assay with CCRF-CEM leukemia; more than 100 µM with EKVX NSCLC; more than 100 µM in the assay on HT29 colon; more than 100 µM in the assay with IGROV1 ovarian; more than 100 µM with M14 melanoma. Also, the TGI in the assay on MDA-MB-231 breast, with MOLT-4 leukemia, in the assay on RPMI-8226 leukemia and in the assay on SK-OV-3 ovarian was more than 100 µM in each case.
On to `O=[N+]([O-])/C(Cl)=C(\NCCO)C(Cl)=C(Cl)Cl`, for which the TGI with A498 renal is more than 100 µM; with CCRF-CEM leukemia, 52.1 µM; in the assay on EKVX NSCLC, more than 100 µM; in the assay on HT29 colon, more than 100 µM; in the assay on IGROV1 ovarian, more than 100 µM; with M14 melanoma it was 77.5 µM. The TGI was more than 90.7 µM with MDA-MB-231 breast, 63.6 µM in the assay on MOLT-4 leukemia, 40.5 µM in the assay with RPMI-8226 leukemia and more than 100 µM in the assay on SK-OV-3 ovarian.
In the case of `COc1ccc(-c2csc3c2[N+]2(C)C=CC=C2C3N2CCCC2)cc1` (configuration not stated), the TGI with A498 renal is more than 100 µM; with CCRF-CEM leukemia it was more than 100 µM; with EKVX NSCLC, more than 100 µM; in the assay with HT29 colon, 43 µM; in the assay on IGROV1 ovarian it was 27.2 µM; in the assay with M14 melanoma, more than 100 µM. The TGI in the assay on MDA-MB-231 breast, with MOLT-4 leukemia, in the assay on RPMI-8226 leukemia and with SK-OV-3 ovarian was more than 100 µM in each case.
As for `CC(Cl)(CCC(Cl)C(C)(C)Cl)C(=O)CBr` (configuration not stated), the TGI in the assay with A498 renal is 31.1 µM; in the assay on CCRF-CEM leukemia, more than 21.5 µM; with EKVX NSCLC, 30.9 µM; with HT29 colon it was 32.3 µM; in the assay on IGROV1 ovarian, 26.7 µM; in the assay on M14 melanoma it was 21.8 µM. Moreover, the TGI in the assay on MDA-MB-231 breast was determined as 23.9 µM; with MOLT-4 leukemia it was 3.81 µM; in the assay with RPMI-8226 leukemia it was 7.99 µM; with SK-OV-3 ovarian, 26.9 µM.
